From US10660334B2, “Fused bicyclic heterocycle derivatives as pesticides” (Bayer CropScience Aktiengesellschaft, priority 2016, dated 2020) come the findings set out here.

SMILES strings stand for the structures.

In data set [1] the test system is Myzus persicae. Kind of data set: Myzus persicae oral test. The data set is classed as in vivo. Particulars: 120 h, application rate 4 ppm, after 5 days, read-out: efficacy (aphids killed). As for the experimental part: Myzus persicae—Oral Test Solvent: 100 parts by weight of acetone To produce a suitable active ingredient formulation, 1 part by weight of active ingredient is dissolved with the stated parts by weight of solvent and made up to the desired concentration with water. 50 μl of the active ingredient preparation are transferred into microtitre plates and made up to a final volume of 200 μl with 150 μl of IPL41 insect medium (33%+15% sugar). Subsequently, the plates are sealed with parafilm, which a mixed population of green peach aphids (Myzus persicae) within a second microtitre plate is able to puncture and imbibe the solution. After 5 days, the efficacy in % is determined. 100% means that all the aphids have been killed; 0% means that no aphids have been killed.

Data set [2] concerns Myzus persicae. Kind of data set: Myzus persicae spray test. The data set is classed as in vivo. Particulars: foliar, 120 h, spray on Chinese cabbage leaf discs, after 5 days, read-out: efficacy (aphids killed); for pest or weed control at 20 g/ha: application rate 20 g/ha; for pest or weed control at 100 g/ha: application rate 100 g/ha. As for the experimental part: Myzus persicae—Spray Test Solvent: 78 parts by weight of acetone • • 1.5 parts by weight of dimethylformamide Emulsifier: alkylaryl polyglycol ether To produce a suitable active ingredient formulation, 1 part by weight of active ingredient is dissolved with the specified parts by weight of solvent and made up to the desired concentration with water containing an emulsifier concentration of 1000 ppm. To produce further test concentrations, the formulation is diluted with emulsifier-containing water. Discs of Chinese cabbage leaves (Brassica pekinensis) infested by all stages of the green peach aphid (Myzus persicae) are sprayed with an active ingredient formulation of the desired concentration. After 5 days, the efficacy in % is determined. 100% means that all the aphids have been killed; 0% means that no aphids have been killed.

Data set [3] can be described thus: log P by HPLC on reversed-phase column (EEC Directive 79/831 Annex V.A8), acidic range. Format: physicochemical. Particulars: reversed-phase C18 HPLC column; HPLC reversed-phase C18, 55° C., pH 2.7, 0.1% aqueous formic acid and acetonitrile; read-out: log P (HCOOH). As for the experimental part: The log P values are measured according to EEC Directive 79/831 Annex V.A8 by HPLC (high-performance liquid chromatography) on a reversed-phase column (C18). Temperature: 55° C. The LC-MS determination in the acidic range is effected at pH 2.7 with 0.1% aqueous formic acid and acetonitrile (containing 0.1% formic acid) as eluents; linear gradient from 10% acetonitrile to 95% acetonitrile. Called log P (HCOOH) in the table.

A further data set relates to Phaedon cochleariae. Kind of data set: Phaedon cochleariae spray test. The data set is classed as in vivo. Particulars: spray on Chinese cabbage leaf discs, after 7 days. Here is the method: Phaedon cochleariae—Spray Test
Solvent: 78.0 parts by weight of acetone • • 1.5 parts by weight of dimethylformamide
Emulsifier: alkylaryl polyglycol ether
To produce a suitable active ingredient formulation, 1 part by weight of active ingredient is dissolved with the specified parts by weight of solvent and made up to the desired concentration with water containing an emulsifier concentration of 1000 ppm. To produce further test concentrations, the formulation is diluted with emulsifier-containing water.
Discs of Chinese cabbage leaves (Brassica pekinensis) are sprayed with an active ingredient formulation of the desired concentration and, after drying, populated with larvae of the mustard beetle (Phaedon cochleariae).
After 7 days, the efficacy in % is determined. 100% means that all the beetle larvae have been killed; 0% means that no beetle larvae have been killed.

The test system of a further data set is Musca domestica. Kind of data set: Musca domestica test. The data set is classed as in vivo. Particulars: application rate 100 ppm, adult houseflies, after 2 days. Here is the method: Musca domestica Test Solvent: dimethyl sulfoxide To produce a suitable active ingredient formulation, 10 mg of active ingredient are mixed with 0.5 ml of dimethyl sulfoxide, and the concentrate is diluted with water to the desired concentration. Vessels containing a sponge treated with sugar solution and the active ingredient formulation of the desired concentration are populated with 10 adult houseflies (Musca domestica). After 2 days, the kill in % is determined. 100% means that all of the flies have been killed; 0% means that none of the flies have been killed.

The subject of another data set is Lucilia cuprina. The experiment in a line: Lucilia cuprina test. The data set is classed as in vivo. Particulars: application rate 100 ppm, L1 larvae, after 2 days. As for the experimental part:
Lucilia cuprina Test Solvent: dimethyl sulfoxide To produce a suitable active ingredient formulation, 10 mg of active ingredient are mixed with 0.5 ml of dimethyl sulfoxide, and the concentrate is diluted with water to the desired concentration. About 20 L1 larvae of the Australian sheep blowfly (Lucilia cuprina) are transferred into a test vessel containing minced horsemeat and the active ingredient formulation of the desired concentration. After 2 days, the kill in % is determined. 100% means that all the larvae have been killed; 0% means that no larvae have been killed.

With `Cn1c(-c2nc3n(c2S(C)(=O)=O)CCCC3)nc2cc(SC(F)(F)F)cnc21` [Example I-023], the pest or weed control at 4 ppm in the data set on Myzus persicae [1] was 100%. In the data set on Myzus persicae [2], the pest or weed control at 20 g/ha was 90% and the pest or weed control at 100 g/ha was found to be 90%.

On to `CC1(C)CCn2c(nc(C(=O)O)c2Br)C1` [III-002, 3-Bromo-7,7-dimethyl-6,8-dihydro-5H-imidazo[1,2-a]pyridine-2-carboxylic acid], for which the chromatographic logP in data set [3] is 0.67.

Regarding `CCS(=O)(=O)c1c(-c2nc3cc(C(F)(F)F)ncc3n2C)nc2n1CCCC2O` (stereo not drawn) [Example I-024, 3-Ethylsulfonyl-2-[3-methyl-6-(trifluoromethyl)imidazo[4,5-c]pyridin-2-yl]-5,6,7,8-tetrahydro-imidazo[1,2-a]pyridin-8-ol], the chromatographic logP in data set [3] is 1.6. Moreover, the pest or weed control at 4 ppm in the data set on Myzus persicae [1] was 100%. Further, in the data set on Myzus persicae [2], the pest or weed control at 100 g/ha was 90%.

Turning to `CCS(=O)(=O)c1c(-c2nc3cc(C(F)(F)F)nc(C(F)F)c3n2C)nc2n1CCCC2` [Example I-025, 4-(Difluoromethyl)-2-[3-(ethylsulfonyl)-5,6,7,8-tetrahydroimidazo[1,2-a]pyridin-2-yl]-3-methyl-6-(trifluoromethyl)-3H-imidazo[4,5-c]pyridine], the chromatographic logP in data set [3] was 2.8. Moreover, the pest or weed control at 4 ppm in the data set on Myzus persicae [1] was determined as 100%.

With `CCS(=O)(=O)c1c(-c2nc3cc(C(F)(F)F)ncc3n2C)nc2n1CCCC2(O)C(F)(F)F` (stereo not drawn) [Example I-006], in the data set on Myzus persicae [1], the pest or weed control at 4 ppm worked out at 100%.

With `CCS(=O)(=O)c1c(-c2nc3cc(C(F)(F)F)ncc3n2C)nc2n1CCCC2C` (stereo not drawn) [Example I-043, 2-(3-Ethylsulfonyl-8-methyl-5,6,7,8-tetrahydroimidazo[1,2-a]pyridin-2-yl)-3-methyl-6-(trifluoromethyl)imidazo[4,5-c]pyridine], in data set [3], the chromatographic logP was 2.31.

As to `CCS(=O)(=O)c1c(-c2nc3cc(C(F)(F)F)ncc3n2C)nc2n1CCCC2C(F)(F)F` (stereo not drawn) [Example I-004], in the data set on Myzus persicae [1], the pest or weed control at 4 ppm stood at 100%.

As for `Cn1c(-c2nc3n(c2Br)CCC(C)(C)C3)nc2cc(C(F)(F)F)ncc21` [Example V-003, 2-(3-Bromo-7,7-dimethyl-6,8-dihydro-5H-imidazo[1,2-a]pyridin-2-yl)-3-methyl-6-(trifluoromethyl)imidazo[4,5-c]pyridine], in data set [3], the chromatographic logP was 3.03.

For the molecule `CCS(=O)(=O)c1c(-c2nc3cc(C(F)(F)F)ncc3n2C)nc2n1CCCC2` [Example I-002, 2-(3-Ethylsulfonyl-5,6,7,8-tetrahydroimidazo[1,2-a]pyridin-2-yl)-3-methyl-6-(trifluoromethyl)imidazo[4,5-c]pyridine], the “efficacy (beetle larvae killed)” value with Phaedon cochleariae (application rate 500 g/ha) turned out to be 83%. Also, in data set [3], the chromatographic logP was determined as 1.97. In addition, in the data set with Myzus persicae [2], the pest or weed control at 20 g/ha is 90% and the pest or weed control at 100 g/ha stood at 90%. Further, in the data set on Myzus persicae [2] (application rate 500 g/ha), the pest or weed control at 500 g/ha was 90%.

In the case of `Cn1c(-c2nc3n(c2S(C)(=O)=O)CCCC3)nc2cc(C(F)(F)F)cnc21` [Example I-018], the pest or weed control at 20 g/ha in the data set on Myzus persicae [2] came out at 90%.

For `CCS(=O)(=O)c1c(-c2nc3cc(S(=O)(=O)C(F)(F)F)cnc3n2C)nc2n1CCCC2` [Example I-021], the “efficacy (beetle larvae killed)” value in the data set with Phaedon cochleariae (application rate 100 g/ha) turned out to be 100%. Moreover, the pest or weed control at 4 ppm in the data set with Myzus persicae [1] was determined as 100%. Further, in the data set on Myzus persicae [2], the pest or weed control at 20 g/ha stood at 90% and the pest or weed control at 100 g/ha was determined as 100%.

In the case of `CCc1nc(C(F)(F)F)cc2nc(-c3nc4n(c3S(=O)(=O)CC)CCCC4)n(C)c12` [Example I-040, 4-Ethyl-2-(3-ethylsulfonyl-5,6,7,8-tetrahydroimidazo[1,2-a]pyridin-2-yl)-3-methyl-6-(trifluoromethyl)imidazo[4,5-c]pyridine], in data set [3], the chromatographic logP was 2.51.

In the case of `CCS(=O)(=O)c1c(-c2nc3cc(C(F)(F)F)ncc3n2C)nc2n1CCCC2F` (stereo not drawn) [Example I-026, 2-[3-(Ethylsulfonyl)-8-fluoro-5,6,7,8-tetrahydroimidazo[1,2-a]pyridin-2-yl]-3-methyl-6-(trifluoromethyl)-3H-imidazo[4,5-c]pyridine], in data set [3], the chromatographic logP came to 2.11.

Take `CCS(=O)(=O)c1c(-c2nc3cc(C(F)(F)C(F)(F)F)ncc3n2C)nc2n1CCC(C)C2` (stereo not drawn) [Example I-034, 2-(3-Ethylsulfonyl-7-methyl-5,6,7,8-tetrahydroimidazo[1,2-a]pyridin-2-yl)-3-methyl-6-(1,1,2,2,2-pentafluoroethyl)imidazo[4,5-c]pyridine]: the chromatographic logP in data set [3] came out at 2.8.

As for `CC1CCn2c(nc(C(=O)O)c2Br)C1` (stereo not drawn) [III-001, 3-Bromo-7-methyl-5,6,7,8-tetrahydroimidazo[1,2-a]pyridine-2-carboxylic acid], in data set [3], the chromatographic logP came to 0.27.

Regarding `CC1CCn2c(nc(-c3nc4cc(C(F)(F)C(F)(F)F)ncc4n3C)c2Br)C1` (stereo not drawn) [Example V-002, 2-(3-Bromo-7-methyl-5,6,7,8-tetrahydroimidazo[1,2-a]pyridin-2-yl)-3-methyl-6-(1,1,2,2,2-pentafluoroethyl)imidazo[4,5-c]pyridine], the chromatographic logP in data set [3] was 3.39.

Consider `Cn1c(-c2nc3n(c2S(C)(=O)=O)CCCC3)nc2cc(C(F)(F)F)ccc21` [Example I-016], for which the pest or weed control at 4 ppm with Myzus persicae [1] amounted to 100%.

As for `Cn1c(-c2nc3n(c2Cl)CCCC3)nc2cc(C(F)(F)F)ncc21` [Example V-001, 2-(3-Chloro-5,6,7,8-tetrahydroimidazo[1,2-a]pyridin-2-yl)-3-methyl-6-(trifluoromethyl)imidazo[4,5-c]pyridine], in data set [3], the chromatographic logP was determined as 2.26.

With `CCS(=O)(=O)c1c(-c2nc3cc(C(F)(F)F)nc(C(C)C)c3n2C)nc2n1CCCC2` [Example I-019], the pest or weed control at 4 ppm with Myzus persicae [1] was determined as 100%. Besides, in the data set on Myzus persicae [2], the pest or weed control at 20 g/ha turned out to be 90% and the pest or weed control at 100 g/ha came to 90%.

On to `CCS(=O)(=O)c1c(-c2nc3cc(C(F)(F)F)ncc3n2C)nc2n1CCC(C)(C)C2` [Example I-031, 2-(3-Ethysulfonyl-7,7-dimethyl-6,8-dihydro-5H-imidazo[1,2-a]pyridin-2-yl)-3-methyl-6-(trifluoromethyl)imidazo[4,5-c]pyridine], for which, in data set [3], the chromatographic logP came out at 2.51.

Take `CCS(=O)(=O)c1c(-c2nc3cc([S+]([O-])C(F)(F)F)cnc3n2C)nc2n1CCCC2` (stereo not drawn) [Example I-022]: the pest or weed control at 4 ppm with Myzus persicae [1] came to 100%. The pest or weed control at 20 g/ha in the data set on Myzus persicae [2] is 90%.

For the molecule `CCS(=O)(=O)c1c(-c2nc3cc(SC(F)(F)F)cnc3n2C)nc2n1CCCC2` [Example I-020], in the data set with Phaedon cochleariae (application rate 100 g/ha), the “efficacy (beetle larvae killed)” value worked out at 100%. For the same molecule, the pest or weed control at 4 ppm with Myzus persicae [1] was found to be 100%. Besides, in the data set on Myzus persicae [2], the pest or weed control at 20 g/ha amounted to 90% and the pest or weed control at 100 g/ha amounted to 90%.

`CCS(=O)(=O)c1c(-c2nc3cc(C(F)(F)F)nc(C)c3n2C)nc2n1CCCC2` [Example I-039, 2-(3-Ethylsulfonyl-5,6,7,8-tetrahydroimidazo[1,2-a]pyridin-2-yl)-3,4-dimethyl-6-(trifluoromethyl)imidazo[4,5-c]pyridine]: the chromatographic logP in data set [3] is 2.1.

`Cn1c(-c2nc3n(c2S(C)(=O)=O)CCCC3)nc2cc(C(F)(F)F)cnc21` [Example I-014]: in the data set with Myzus persicae [1], the pest or weed control at 4 ppm was 100%. The “efficacy (kill)” value in the data set on Musca domestica and in the data set with Lucilia cuprina was 100% in each case. Moreover, the pest or weed control at 100 g/ha in the data set with Myzus persicae [2] was 90%.
